Experimental data from patent US20110092488A1, “Quninoline Methanol Compounds for the Treatment and Prevention of Parasitic Infections” (priority 2005, published 2011).
In brackets after ≈: the same amount, converted by molar mass. Entries after “also recorded” stand apart in the source; their conditions may differ. Read-outs that look alike come from different tables or passages of the source. Each block holds one compound with its values, some of them ahead of it.

Key:
[1] = system: FVO strain of P. falciparum; assay: Efficacy in P. falciparum-challenged Aotus monkeys; type: in vivo, Plasmodium falciparum in Aotus lemurinus lemurinus; settings: 10 mg/kg/day x7 oral; groups of two; Cure = parasite free 90 days; R = average day of recrudescence; Failure = rescued with mefloquine
Procedure: (§1) The P. berghei-mouse efficacy data were obtained from the WRAIR chemical information system (subcutaneous testing) or from recent tests conducted at AFRIMS, Thailand or at the University of Miami using a modified version of the Thompson test. Groups of five mice were inoculated through i.p. injection on day 0 (usually with 1×106 P. berghei-parasitized erythrocytes). The drugs in Table 1 were administered either subcutaneously or orally for three days (usually on days 3-5) at doses of 1.25-160 mg/kg in two to four fold increments. Cure was defined as survival until day 60 (subcutaneous dosing) or day 31 post-treatment (oral dosing). […] The minimum effective dose was the lowest dose level that cured at least one of five mice. The Aotus studies were performed according to Obaldia; Detection of Klebsiella pnuumoniae antibodies in Aotus l. lemurinus (Panamanian owl monkey) using an enzyme linked immunosorbent assay (ELIA) test; Lab Anim (25)133-141 (1991) and Obaldia et al., WR 238605, chloroquine, and their combinations as blood schizonticides against a chloroquine-resistant strain of Plasmodium vivax in Aotus monkeys; Am. J. Trop. Med. Hyg. (56)508-510 (1997), which are incorporated by reference, herein. Groups of two Aotus lemurinus 6 lemurinus of the karyotype VIII or IX (27) male and female monkeys with weights ranging from 742-970 g were inoculated with 5×10^6 parasites of either the FVO strain of P. falciparum or the AMRU1 strain of P. vivax. Both of these strains are chloroquine resistant. […] Monkeys were examined and thick Giemsa-stained blood smears were prepared and enumerated daily (17) to monitor the course of infection. […] In some instances, a high dose of the test drug was used to retreat monkeys instead of the mefloquine rescue. Monkeys are considered cured if they are parasite free 90 days post treatment. […] Plasma samples were taken from the monkeys in some studies for quantification of metabolites. Additional blood samples were taken as appropriate for complete blood counts and serum chemistry. Research was conducted in compliance with the Animal Welfare Act and other federal statutes and regulations relating to animals and experiments involving animals and adheres to principles stated in the Guide for the Care and Use of Laboratory Animals, NRC Publication, 1996 edition (34).

[2] = Aotus, 10 mg/kg/day oral x7
Procedure: as §1

P. falciparum D6 [3] = assay: Isobologram analysis azithromycin and WR074086, P. falciparum D6; type: cell-based, Plasmodium falciparum
Procedure: (§2) The combined effects of azithromycin (as represented by compound 196 on the horizontal axes of FIG. 4 through 6) and WR074086 (as represented by compound 14885 on vertical axes of FIGS. 4 through 6) against three strains of P. falciparum were investigated using isobologram analysis. First, the IC50s of each compound were determined as described above.
(§3) Next, IC50s were determined with different fractional starting concentrations of each compound. For example in line C of FIG. 5, the starting concentration of azithromycin was 12500 ng/ml whereas the starting concentration of WR074086 was 5 ng/ml. Each of these starting concentrations is half of that used when each compound was tested alone. […] In the data tables, lines D-H represent other combinations of starting concentrations of each compound.
(§4) For each pair of starting concentrations for each drug, fractional inhibitory concentrations were determined using the following formula: FIC=IC50 in combination/IC50 alone.
(§5) The FICs for the eight tests are plotted as indicated in FIG. 4 through FIG. 6 for each of three P. falciparum strains. Graphs of this type are called isobolograms and additivity is represented by an overall FIC SUM of 1, as represented by the straight line joining the two axes. A potentiative effect is represented by a concave curve below the straight line, since IC50s in combination are lower than expected. Antagonism is represented by a convex curve above the straight line, since IC50s in combination are higher than expected.

[4] = system: P. falciparum D6, W2 and TM91C235; assay: Isobologram analysis azithromycin and WR074086, P. falciparum D6, W2 and TM91C235; type: cell-based, Plasmodium falciparum; settings: WR074086 combined with azithromycin; in many instances; FIGS. 4-6
Procedure: as §2, §3, §4
as §5, with “Antagonism is represented by a convex curve above the straight line, since IC50s in combination are higher than expected.” left out

P. falciparum TM91C235 = assay: In vitro antimalarial activity against P. falciparum TM91C235; type: cell-based, Plasmodium falciparum
Procedure: (§6) The in vitro activities of AAQMs against P. falciparum strains W2, D6, TM91C235 and TM90C2A were evaluated using the method of Desjardins et al. as modified by Milhous et al. W2 is chloroquine resistant and mefloquine sensitive, D6 is chloroquine sensitive but naturally less susceptible to mefloquine, TM91C235 is resistant to mefloquine, chloroquine and pyrimethamine as is TM90C2A, however this latter parasite is a two pfmdr1 copy strain. We routinely run mefloquine in this screen as a control to ensure assay validity.

P. falciparum D6 [5] = assay: In vitro antimalarial activity against P. falciparum D6; type: cell-based, Plasmodium falciparum
Procedure: as §6, §2

[6] = molecular target: human multiple drug resistance transporter (MDR1), P-glycoprotein (Homo sapiens, UniProt P08183); settings: not told; cited from earlier work
[7] = humans; cited from earlier work
[8] = system: neuronal calcium homeostasis; assay: Neuronal calcium homeostasis, confocal microscopy (Fluo-3); settings: 100 μM, FIG. 2(b)
Procedure: (§7) The neurocytotoxicity assay of AAQMs was conducted as per Dow et al.; The antimalarial potential of 4-quinolinecarbinolamines may be limited due to neurotoxicity and cross-resistance in mefloquine-resistant Plasmodium falciparum strains; Chemother. (48) 2624-2632 (2004) and is incorporated herein, by reference. This assay utilizes primary rat forebrain neurons and is a multi-endpoint screen. […] The AAQMs outlined in Table 1 were screened at 10, 100 and 1000 μM in triplicate, and the reduction in viability observed was determined using the 3-(4,5-dimethylthiazol-2-yl)-2,5-diphenyltetrazolium bromide (MTT) assay as per Dow et al., discussed above. Approximate IC50 values were calculated on the basis of the level of inhibition observed at each concentration. […] IC50s were calculated using Prism. […] Neurons were exposed to DNQX (100 μM) or magnesium (12 mM) for 5 min, followed by mefloquine (25 μM) or WR069878 (250 μM) for 20 min after which reduction in cell viability was determined. […] The effects of mefloquine and WR069878 on neuronal calcium homeostasis were assessed utilizing confocal microscopy as per Dow et al, as discussed in Antimicrob Agents Chemother. […] Subsequent changes in neuronal calcium homeostasis were recorded as fluctuations in the emitted fluorescence of fluo-3-complexed calcium at 530 nm (excitation was 488 nm). […]

[9] = system: primary rat forebrain neurons; assay: Neurocytotoxicity assay (MTT)
Procedure: The neurocytotoxicity assay of AAQMs was conducted as per Dow et al.; The antimalarial potential of 4-quinolinecarbinolamines may be limited due to neurotoxicity and cross-resistance in mefloquine-resistant Plasmodium falciparum strains; Chemother. (48) 2624-2632 (2004) and is incorporated herein, by reference. This assay utilizes primary rat forebrain neurons and is a multi-endpoint screen. […] The AAQMs outlined in Table 1 were screened at 10, 100 and 1000 μM in triplicate, and the reduction in viability observed was determined using the 3-(4,5-dimethylthiazol-2-yl)-2,5-diphenyltetrazolium bromide (MTT) assay as per Dow et al., discussed above. Approximate IC50 values were calculated on the basis of the level of inhibition observed at each concentration. Full dose response assays were run for mefloquine and WR069878 with two fold dilutions (n=6 wells per dilution) and 11 dilutions for each drug. IC50s were calculated using Prism. Each time the assay is conducted, 20 μM mefloquine is included, as a control. […] Assays are re-run if the loss of viability induced by mefloquine is <40% or >60%. Neuroprotection experiments with 6,7-dinitroquinoxaline-2,3-dione (DNQX) and magnesium were performed as per Dow et al.; Transcriptional profiling of mefloquine-induced disruption of calcium homeostasis in neurons in vitro; Genomics (86)539-550 (2005), which is incorporated by reference, herein. Neurons were exposed to DNQX (100 μM) or magnesium (12 mM) for 5 min, followed by mefloquine (25 μM) or WR069878 (250 μM) for 20 min after which reduction in cell viability was determined. […] DNQX is an inhibitor of non-N-methyl-D-aspartate (NMDA) receptors, whilst magnesium inhibits the functioning of the inositol 1,4,5-trisphosphate (IP3)-mediated calcium signaling pathway at several points. The effects of mefloquine and WR069878 on neuronal calcium homeostasis were assessed utilizing confocal microscopy as per Dow et al, as discussed in Antimicrob Agents Chemother. (48)2624-2632 (2004), cited above, and incorporated by reference, herein. Briefly neurons were loaded with calcium sensitive dye Fluo 3-A for 1 h and were washed prior to image experiments. Neurons were ‘spiked’ with 100 μM mefloquine or WR069878. Subsequent changes in neuronal calcium homeostasis were recorded as fluctuations in the emitted fluorescence of fluo-3-complexed calcium at 530 nm (excitation was 488 nm). Sequential image scans of fields containing 5-25 neurons were used to construct temporal profiles. Scans were made at 10 s intervals. Fluorescence levels for each neuron were normalized 12 to time zero values. Data were then pooled from three and five independent experiments for mefloquine and WR069878 respectively.

[10] = Phototoxicity in mice (historical experiments); settings: WR030090: 25 or 50 mg/kg orally, WRAIR archival data
[11] = system: primary rat forebrain neurons; assay: Neuroprotection experiments with DNQX and magnesium; settings: DNQX 100 μM or magnesium 12 mM; mefloquine 25 μM, WR069878 250 μM; FIG. 2(c)
Procedure: as §7

P. falciparum TM90C2A = assay: In vitro antimalarial activity against P. falciparum TM90C2A; type: cell-based, Plasmodium falciparum
Procedure: as §6

[12] = single mefloquine treatment dose; cited from earlier work
P. falciparum W2 = assay: In vitro antimalarial activity against P. falciparum W2; type: cell-based, Plasmodium falciparum
Procedure: as §6

[13] = rats; cited from earlier work
[14] = Procedure: The AAQMs indicated in Table 1 (10 μM) were added to a mixture containing an NADPH-regenerating buffer (1.25 mM β-NADP+, 3.3 mM glucose-6-phosphate, and 3.3 mM MgCl2) and 0.5 mg/ml pooled human liver microsomes to a final volume of 125 μl. The mixtures were incubated for 5 minutes at 37° C. and the reactions were initiated by adding 25 μl glucose-6-phosphate dehydrogenase to a final concentration of 1 unit/ml. The reactions were maintained at 37° C. until they were terminated by the addition of an equal volume of 100% ice cold acetonitrile at 0, 10, 30, 60, and 120 minutes. Samples were centrifuged to pellet the proteins and the supernatant was analyzed by LC-MS/MS in duplicate using fast LC gradient or isocratic methods. AAQM concentrations were quantified with external calibration, using plots of response v. amount. Chromatograms were analyzed using the mass spectrometry software Xcalibur® QuanBrowser (for ThermoFinnigan® instruments) or MassLynx® (for Waters® instruments). Concentrations of AAQMs remaining at each time point were calculated using the unknown peak areas and corresponding calibration curves. In order to calculate the half-life, a first-order rate of decay was assumed. […] All reagents were purchased from Sigma except for the microsomes, which were obtained from BD Gentest®. For metabolite identification, samples were prepared as described above with human liver microsomes. Additional samples were prepared with for each AAQM using mouse, rat, and rhesus monkey liver microsomes. Samples were separated using an LC gradient method and analyzed by full scan LC-MS and LC-MS/MS. […] These MS/MS data were also used to do preliminary structural elucidation. […] The relative percentage of formation of each metabolite was determined in a semi-quantitative manner since standards of each metabolite were not available. Peak areas of each detected AAQM metabolite and the internal standard were determined, and their ratios were calculated as metabolite area/internal standard area. The percent formation of each metabolite was determined as the area ratio divided by the sum of all the metabolite area ratios.

Mean peak concentration [2]: 129 ng/mL
Plasma conc on day 1 (ng/ml) 2 h ([2]; day 1, 2 h): 179 ng/mL
Plasma conc on day 1 (ng/ml) 24 h ([2]; day 1, 24 h): 4.0 ng/mL
Plasma conc. on day 7 (ng/ml) 2 h ([2]; day 7, 2 h): 78 ng/mL
Plasma conc. on day 7 (ng/ml) 24 h ([2]; day 7, 24 h): 78 ng/mL
FIC (IC50 in combination/IC50 alone) (P. falciparum D6 [3]; Line C FIG. 5: starting azithromycin 12500 ng/ml, WR074086 5 ng/ml): 0.399
Activity against P. falciparum TM91C235 (IC50 in ng/ml) (P. falciparum TM91C235): 3.4 ng/mL
TM91C235 IC90 (P. falciparum TM91C235; Table 2): 0.007 µg/mL
IC50 against P. falciparum D6, compound alone (P. falciparum D6 [5]; FIG. 5): 0.0018086 µg/mL (≈ 0.0039 µM)
SMILES: CCCCN(CCCC)CC(O)c1cc(-c2ccc(F)cc2)nc2c(Cl)cc(Cl)cc12 (stereo not drawn) [WR074086]
Outcome in Aotus [1]: cleared parasitemias, but recrudescence was subsequently observed; also recorded: Clear (R25)
FIC sum (P. falciparum D6 [3]; azithromycin + WR074086, Line C FIG. 5): 0.648
Minimum fractional inhibitory concentration (FIC) [4]: < 0.5

SMILES: OC(c1cc(C(F)(F)F)nc2c(C(F)(F)F)cccc12)C1CCCCN1 (stereo not drawn) [Mefloquine, reference compound]
PgP interaction [6]: PgP substrate and inhibitor
Maximum concentration in CNS [7]: 52 µM
Effect on intracellular calcium (Fluo-3 fluorescence) [8]: increases intracellular calcium concentrations
IC50 ([9]; read-out: Median IC50 against rat neurons, Table 4): 20 µM
IC50 ([9]; read-out: Neurotoxicity IC50, full dose response, FIG. 2(a)): 27 µM
IC50 ([9]; read-out: Neurotoxicity ranking (IC50 in μM), approximate IC50 from screen at 10, 100 and 1000 μM, MTT): 20 µM
Phototoxicity in mice [10]: Not phototoxic at tolerated doses
Neurotoxicity blocked by DNQX and supra-physiological magnesium [11]: is blocked
IC90 against TM90C2A (P. falciparum TM90C2A): 0.101 µg/mL (≈ 0.267 µM)
Peak plasma concentrations [12]: 800 to 8000 ng/mL
Activity against P. falciparum TM91C235 (IC50 in ng/ml) (P. falciparum TM91C235): 15 ng/mL
IC50 (P. falciparum TM91C235; Table 4, read-out: Median IC50 against P. falciparum TM91C235): 0.035 µM
Mean IC50 +/- SD against P. falciparum TM91C235 (P. falciparum TM91C235; control, last 15 assays): 0.0157 ± 0.0027 µg/mL
IC90 against TM91C235 (P. falciparum TM91C235; text b26): 0.089 µg/mL (≈ 0.235 µM)
IC90 against W2 (P. falciparum W2): 0.0039 µg/mL (≈ 0.0103 µM)
Maximum concentration in CNS [13]: 113 µM
IC90 against D6 (P. falciparum D6 [5]): 0.02 µg/mL (≈ 0.0529 µM)
Half-life, human liver microsomes [14]: > 2 h
